Laboratory results taken from US20230113037A1 (Bayer Aktiengesellschaft, priority 2019, published 2023).
pIC50: −log10 of the molar value. Read-outs that look alike come from different tables or passages of the source.

What was measured:
AHR [1] = target: T1, AHR (Mus musculus, UniProt P30561); assay: In vitro assay 3: antagonism in mouse cell line (AHR transactivation, firefly luciferase reporter, kynurenic acid prestimulated); assay type: cell-based
T1 sequence (P30561 1-848 P471L/N533S/M589L): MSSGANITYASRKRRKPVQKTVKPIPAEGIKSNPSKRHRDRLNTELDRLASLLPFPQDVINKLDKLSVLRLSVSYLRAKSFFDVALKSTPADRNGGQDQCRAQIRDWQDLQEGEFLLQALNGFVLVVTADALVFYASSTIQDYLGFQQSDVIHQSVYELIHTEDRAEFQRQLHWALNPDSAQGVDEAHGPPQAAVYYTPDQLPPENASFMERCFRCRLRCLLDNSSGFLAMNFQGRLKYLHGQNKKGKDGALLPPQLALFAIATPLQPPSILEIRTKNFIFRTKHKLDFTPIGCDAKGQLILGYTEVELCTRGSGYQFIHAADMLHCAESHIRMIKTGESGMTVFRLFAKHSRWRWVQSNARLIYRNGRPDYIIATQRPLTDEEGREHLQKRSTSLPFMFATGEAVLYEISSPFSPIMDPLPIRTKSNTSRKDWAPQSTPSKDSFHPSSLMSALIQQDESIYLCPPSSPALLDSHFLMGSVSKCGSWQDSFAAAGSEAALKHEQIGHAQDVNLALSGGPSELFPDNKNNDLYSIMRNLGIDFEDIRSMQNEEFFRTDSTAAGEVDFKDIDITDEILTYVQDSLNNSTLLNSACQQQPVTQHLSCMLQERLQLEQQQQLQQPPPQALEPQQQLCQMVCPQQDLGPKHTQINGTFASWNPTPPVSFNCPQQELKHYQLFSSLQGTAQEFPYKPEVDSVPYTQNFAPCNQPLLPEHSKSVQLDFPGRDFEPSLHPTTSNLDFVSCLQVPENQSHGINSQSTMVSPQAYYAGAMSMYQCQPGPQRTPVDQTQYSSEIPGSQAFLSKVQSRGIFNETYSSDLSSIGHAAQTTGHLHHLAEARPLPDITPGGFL
Summary of the method: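 Cells were first stimulated with kynurenic acid, then exposed to test compound, after which firefly luciferase from a DRE-containing AHR reporter was read out. Signal was scaled between positive and negative controls. Cells not given kynurenic acid provided the inhibition reference.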

AHR [2] = target: T2, AHR (Homo sapiens, UniProt P35869); assay: In vitro assay 1: antagonism in human cell line (AHR transactivation, firefly luciferase reporter, kynurenic acid prestimulated); assay type: cell-based; conditions: AHR Antagonism Human IC50 [M]
T2 construct: U87 MG glioblastoma cells (ATCC #HTB-14) endogenously expressing AHR; endogenous in cells; host or cells: U87 MG glioblastoma cells (ATCC #HTB-14)
T2 sequence (P35869 11-848): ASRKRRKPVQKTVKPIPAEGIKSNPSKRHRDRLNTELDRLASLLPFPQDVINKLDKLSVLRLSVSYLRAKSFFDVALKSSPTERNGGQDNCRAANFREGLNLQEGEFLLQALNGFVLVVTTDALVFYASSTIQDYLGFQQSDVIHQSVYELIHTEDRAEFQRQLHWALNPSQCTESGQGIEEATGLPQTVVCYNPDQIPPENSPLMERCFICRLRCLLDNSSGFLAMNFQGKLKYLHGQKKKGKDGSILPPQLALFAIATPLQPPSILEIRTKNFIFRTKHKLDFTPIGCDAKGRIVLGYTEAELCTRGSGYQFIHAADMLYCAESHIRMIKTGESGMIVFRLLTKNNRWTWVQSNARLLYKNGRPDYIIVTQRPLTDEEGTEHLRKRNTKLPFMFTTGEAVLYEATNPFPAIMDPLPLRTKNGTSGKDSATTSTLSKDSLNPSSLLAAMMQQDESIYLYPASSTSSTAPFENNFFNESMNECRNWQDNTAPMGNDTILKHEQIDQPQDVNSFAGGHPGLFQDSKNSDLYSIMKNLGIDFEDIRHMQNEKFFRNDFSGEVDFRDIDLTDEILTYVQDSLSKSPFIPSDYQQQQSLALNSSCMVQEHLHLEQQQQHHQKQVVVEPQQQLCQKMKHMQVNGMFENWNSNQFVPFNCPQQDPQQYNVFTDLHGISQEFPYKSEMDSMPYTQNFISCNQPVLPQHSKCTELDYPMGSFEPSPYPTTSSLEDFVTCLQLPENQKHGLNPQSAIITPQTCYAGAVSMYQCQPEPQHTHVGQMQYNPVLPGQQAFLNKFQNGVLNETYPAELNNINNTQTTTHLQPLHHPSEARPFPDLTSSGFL
Summary of the method: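 U87 MG glioblastoma cells with endogenous AHR, stably carrying a DRE-driven firefly luciferase reporter and constitutive Renilla reporter, prestimulated with kynurenic acid before compound addition. Firefly and Renilla read by dual luciferase; Renilla flags toxicity; normalized to controls (150 μM kynurenic acid + 5 μM staurosporine as full inhibition); repeat values averaged or median.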

[3] = mouse Hepa 1c1c7 cells, 200 μM kynurenic acid, 20 hours, read-out: AHR Antagonism Mouse IC50
[4] = Hepa 1c1c7 cells, 200 μM kynurenic acid, 20 hours, firefly luciferase reporter, read-out: AHR Antagonism Mouse IC50

Compound	pIC50 (AHR [1]; [3])	IC50 (AHR [2]) [M]	pIC50 (AHR [1]; [4])	IC50 (AHR [2]; firefly luciferase reporter) [M]	pIC50 (AHR [1]; read-out: AHR Antagonism Mouse IC50, mouse Hepa 1c1c7 cells, 200 μM kynurenic acid, 20 hours)
COc1ccc(-c2nc3c4ccccc4nc(N[C@@H]4CNCCNC4=O)n3n2)cc1OC [Example 409, (6R)-6-{[2-(3,4-dimethoxyphenyl)[1,2,4]triazolo[1,5-c]quinazolin-5-yl]amino}-1,4-diazepan-5-one]	7.77	6.98e-08	–	–	–
O=C1NCCCC[C@H]1Nc1nc2ccccc2c2nc(-c3c[nH]nc3C(F)(F)F)nn12 [Example 604, (3R)-3-({2-[3-(trifluoromethyl)-1H-pyrazol-4-yl][1,2,4]triazolo[1,5-c]quinazolin-5-yl}amino)azepan-2-one]	6.46	1.33e-07	–	–	–
COc1cccc(-c2nc3c4cccc(C)c4nc(N[C@@H]4CCCCNC4=O)n3n2)c1 [Example 140, (3R)-3-{[2-(3-methoxyphenyl)-7-methyl[1,2,4]triazolo[1,5-c]quinazolin-5-yl]amino}azepan-2-one]	8.97	1.09e-09	–	–	–
CC(C)n1cc(-c2nc3c4cccc(C(F)(F)F)c4nc(N[C@@H]4CSCCNC4=O)n3n2)cn1 [Example 838, (6S)-6-({2-[1-(propan-2-yl)-1H-pyrazol-4-yl]-7-(trifluoromethyl)[1,2,4]triaozlo[1,5-c]quinazolin-5-yl}amino)-1,4-thiazepan-5-one]	–	–	8.69	9.63e-10	–
O=C1NCCCC[C@@H]1Nc1nc2ccccc2c2nc(-c3cccc(F)c3)nn12 [Example 10, (3S)-3-{[2-(3-fluorophenyl)[1,2,4]triazolo[1,5-c]quinazolin-5-yl]amino}azepan-2-one]	–	2.71e-08	–	–	8.10
O=C1NCCC[C@H]1Nc1nc2ccccc2c2nc(-c3ccsc3)nn12 [Example 343, (3R)-3-{[2-(thiophen-3-yl)[1,2,4]triazolo[1,5-c]quinazolin-5-yl]amino}piperidin-2-one]	6.75	6.67e-08	–	–	–
CCS(=O)(=O)c1cccc2c1nc(N[C@@H]1CCCCNC1=O)n1nc(-c3ccc(OC)cc3)nc21 [Example 844, (3R)-3-{[7-(ethanesulfonyl)-2-(4-methoxyphenyl)[1,2,4]triazolo[1,5-c]quinazolin-5-yl]amino}azepan-2-one]	–	–	7.96	1.76e-09	–
COc1ccc(-c2nc3c4ccccc4nc(N[C@@H]4CCCCNC4=O)n3n2)cc1OC [Example 624, (3R)-3-{[2-(3,4-dimethoxyphenyl)[1,2,4]triazolo[1,5-c]quinazolin-5-yl]amino}azepan-2-one]	8.91	3.49e-09	–	–	–
O=C1NCCCC[C@H]1Nc1nc2ccccc2c2nc(-c3ccncc3F)nn12 [Example 369, (3R)-3-{[2-(3-fluoropyridin-4-yl)[1,2,4]triazolo[1,5-c]quinazolin-5-yl]amino}azepan-2-one]	8.00	1.64e-08	–	–	–
CC(C)n1cc(-c2nc3c4cccc(OC(F)(F)F)c4nc(N[C@@H]4CCCCNC4=O)n3n2)cn1 [Example 759, (3R)-3-({2-[1-(propan-2-yl)-1H-pyrazol-4-yl]-7-(trifluoromethoxy)[1,2,4]triazolo[1,5-c]quinazolin-5-yl}amino)azepan-2-one]	7.60	7.68e-09	–	–	–
Cn1nccc1-c1nc2c3cccc(C(F)(F)F)c3nc(N[C@H]3CCCCNC3=O)n2n1 [Example 807, (3S)-3-{[2-(1-methyl-1H-pyrazol-5-yl)-7-(trifluoromethyl)[1,2,4]triazolo[1,5-c]quinazolin-5-yl]amino}azepan-2-one]	–	–	7.20	1.1e-07	–
Cn1cc(-c2nc3c4c(C(F)(F)F)cccc4nc(N[C@@H]4CCCCNC4=O)n3n2)cn1 [Example 173, (3R)-3-{[2-(1-methyl-1H-pyrazol-4-yl)-10-(trifluoromethyl)[1,2,4]triazolo[1,5-c]quinazolin-5-yl]amino}azepan-2-one]	6.95	7.21e-08	–	–	–
O=C1NCC[C@H]1Nc1nc2ccccc2c2nc(-c3cc(C(F)(F)F)cc(C(F)(F)F)c3)nn12 [Example 360, (3R)-3-({2-[3,5-bis(trifluoromethyl)phenyl][1,2,4]triazolo[1,5-c]quinazolin-5-yl}amino)pyrrolidin-2-one]	5.26	> 2e-05	–	–	–
